Assay results published in patent publication US9751919B2, “Antimicrobial compositions comprising a hyaluronic acid binding peptide and a β-lactam antibiotic” (priority 2012, dated 2017).
Entries after “also recorded” stand apart in the source; their conditions may differ. Marks after values point to notes of the source that are not given here.

Legend:
K. pneumoniae = experiment: Checkerboard assay (FIC index); type: cell-based, Klebsiella pneumoniae; conditions: antibiotic combined with PEP35
Protocol: (§1) The checkerboard assays were carried out as described by Eliopoulos and Moellering (Chapter 9) in Antibiotic in Laboratory Medicine, Lorian Ed. 1996 as well as Bonapace et al. Diagnostic Microbiology and Infectious Diseases 2002; 44:363-366 and Bonapace et al. Diagnostic Microbiology and Infectious Diseases 2000; 38:43-50. In brief, checkerboard assays were performed in 96 well microtitre trays using an 8-by-8 well configuration. […] 96-well custom designed microtitre plates contained 100 ul/well of cation adjusted Mueller-Hinton broth (eg. for Enterobacteriaceae) with or without lysed horse blood (2-5% V/V) [eg. for S. pneumoniae] and were inoculated to achieve a final concentration of approximately 5×10^5 CFU/ml and incubated in ambient air for 24 hours prior to reading. Colony counts were performed periodically to confirm inocula. Quality control was performed every two weeks using a variety of ATCC QC organisms including; S. pneumoniae 49619, S. aureus 29213, E. faecalis 29212, E. coli 25922 and P. aeruginosa 27853. For all antimicrobials as well as PEP35, CLSI criteria was used.
(§2) The fractional inhibitory concentration index (FIC index) was used to interpret synergy, antagonism or additivity/indifference. FIC index=FIC of drug A+FIC of drug B where:
(§3) The FIC of drug A and drug B is calculated as follows, FIC drug A=MIC of drug A in combination/MIC of drug A alone and FIC of drug B=MIC of drug B in combination/MIC of drug B alone. Synergy is defined as FIC index ≦0.5, additivity/indifference FIC >0.5-4 and antagonism FIC index >4.
(§4) Antimicrobials used included PEP35, cefazolin, ceftriaxone, vancomycin, linezolid, tigecycline and daptomycin versus Gram-positive cocci and PEP35, gentamicin, levofloxacin, piperacillin/tazobactam, meropenem and colistin (Polymyxin E) versus Gram-negative bacilli. These agents were obtained as laboratory grade powders from their respective manufacturers. Stock solutions were prepared and dilutions made as described by the Clinical Laboratory Standards Institute (2005 CLSI).
(§5) Organisms included Gram-positive cocci (2 strains of each): Methicillin-susceptible Staphylococcus aureus (MSSA), community-associated (CA) and healthcare-associated (HA) methicillin-resistant Staphylococcus aureus (MRSA), vancomycin-intermediate Staphylococcus aureus (VISA), vancomycin-resistant Staphylococcus aureus (VRSA), methicillin-resistant Staphylococcus epidermidis (MRSE), Streptococcus pyogenes, Streptococcus agalactiae, Streptococcus pneumoniae, Enterococcus faecalis, Enterococcus faecium and vancomycin-resistant enterococcus (VRE). Gram-negative bacilli tested (2 strains of each) included: E. coli, Pseudomonas aeruginosa, Klebsiella pneumoniae, K. oxytoca, Enterobacter cloacae, P. mirabilis and Stenotrophomonas maltophilia. MIC testing, following two subcultures from frozen stock were determined by the CLSI 2005 approved broth microdilution method.

E. cloacae = experiment: Checkerboard assay (FIC index); type: cell-based, Enterobacter cloacae; conditions: antibiotic combined with PEP35
Protocol: as §1, §2, §3, §4, §5

P. mirabilis [1] = experiment: Checkerboard assay (FIC index); type: cell-based, Proteus mirabilis; conditions: antibiotic combined with PEP35
Protocol: as §1, §2, §3, §4, §5

K. oxytoca = experiment: Checkerboard assay (FIC index); type: cell-based, Klebsiella oxytoca; conditions: antibiotic combined with PEP35
Protocol: as §1, §2, §3, §4, §5

[2] = tested on: MRSA, VISA, VRSA and E. coli; experiment: MIC, agent alone, panel statement; type: cell-based; conditions: CA-MRSA and HA-MRSA (checkerboard strains of Table 11)
Protocol: VISA (strains 92, 95 and 96), VRSA (strains 105 and 106) and E. coli (strain 69717) isolates were also tested. One MSSA was used as a control. All MICs were assessed using CLSI guidelines. Also assessed was the activity of cefazolin, ceftriazone, meropenem, and a piperacillin/tazobactam combination antibiotic. Minimum inhibitory concentration (MIC) is the lowest concentration of an antimicrobial that will inhibit the visible growth of a microorganism after incubation.
Antimicrobial Susceptibility Testing: A custom designed panel of antimicrobials was created. The panel included: PEP35, penicillin, piperacillin/tazobactam, cefazolin, ceftriaxone, meropenem, clarithromycin, clindamycin, gentamicin, amikacin, vancomycin, ciprofloxacin, levofloxacin, moxifloxacin, linezolid, trimethoprim/sulfamethoxazole and doxycycline. These agents were obtained as laboratory grade powders from their respective manufacturers. Stock solutions were prepared and dilutions made as described by the Clinical Laboratory Standards Institute (2005 CLSI). Following two subcultures from frozen stock the MICs of the antimicrobial agents for the isolates were determined by the CLSI 2005 approved broth macrodilution method. Briefly, test tubes containing doubling antibiotic dilutions (2 ml per tube) of cation adjusted Mueller-Hinton broth (eg. for Enterobacteriaceae) with or without lysed horse blood (2-5% V/V) [eg. for S. pneumoniae] were inoculated to achieve a final concentration of approximately 5×10^5 CFU/ml and incubated in ambient air for 24 hours prior to reading. Colony counts were performed periodically to confirm inocula. Quality control was performed every two weeks using a variety of ATCC QC organisms including; S. aureus 29213, E. faecalis 29212, E. coli 25922 and P. aeruginosa 27853. For all antimicrobials as well as PEP35, CLSI criteria were used.

P. mirabilis [3] = experiment: MIC, agent alone (broth microdilution); type: cell-based, Proteus mirabilis; conditions: footnote to Table 12; P. mirabilis 80267 and 81569
Description: as §5

Gram-negative bacilli = experiment: Checkerboard assay, panel statement; type: cell-based; conditions: with gentamicin, levofloxacin, piperacillin-tazobactam, meropenem and colistin; all Gram-negative bacilli tested
Protocol: as §1, §2, §3, §4
as §5, with “Gram-negative bacilli tested (2 strains of each) included: E. coli, Pseudomonas aeruginosa, Klebsiella pneumoniae, K. oxytoca, Enterobacter cloacae, P. mirabilis and Stenotrophomonas maltophilia.” left out

Gram-positive cocci = experiment: Checkerboard assay, panel statement; type: cell-based
Protocol: as §1, §2, §3, §4
as §5, with “Gram-negative bacilli tested (2 strains of each) included: E. coli, Pseudomonas aeruginosa, Klebsiella pneumoniae, K. oxytoca, Enterobacter cloacae, P. mirabilis and Stenotrophomonas maltophilia.” left out

Compound: piperacillin/tazobactam
- Avg ΣFIC (range) (K. pneumoniae; K. pneumoniae 70508): 0.93 (0.62-1.12)
- Avg ΣFIC (range) (K. pneumoniae; K. pneumoniae 77081): 1.05 (0.75-1.25)
- Avg ΣFIC (range) (E. cloacae; E. cloacae 80194): 0.79 (0.5-1.06)
- Avg ΣFIC (range) (E. cloacae; E. cloacae 83128): 0.71 (0.37-1.06)
- Avg ΣFIC (range) (P. mirabilis [1]; P. mirabilis 80267): >0.5*
- Avg ΣFIC (range) (P. mirabilis [1]; P. mirabilis 81569): >0.5*
- Avg ΣFIC (range) (K. oxytoca; K. oxytoca 75316): 0.93 (0.62-1.12)
- Avg ΣFIC (range) (K. oxytoca; K. oxytoca 76874): 0.83 (0.53-1.12)

Compound: LKQKIKHVVKLKVVVKLRSQLVKRKQN (listed as Mus sp.) [PEP35]
- MIC alone, range [2]: 512 to 1024 mg/L
- MIC (P. mirabilis [3]): *PEP35 MIC > 4096
- interaction (in words) (Gram-negative bacilli): did not demonstrate antagonism or synergy; also recorded: additive
- interaction (in words) (Gram-positive cocci; with cefazolin and ceftriaxone, CA-MRSA and HA-MRSA): synergistic
- antagonism (in words) (Gram-positive cocci; with cefazolin, ceftriaxone, daptomycin, linezolid, tigecycline and vancomycin, any streptococci, staphylococci and enterococci tested): did not demonstrate antagonism
- interaction (in words) (Gram-positive cocci; with the six antibiotics, all streptococci, staphylococci and enterococci except CA-MRSA and HA-MRSA): additive

Compound: C[C@@H](O)[C@H]1C(=O)N2C(C(=O)O)=C(S[C@@H]3CN[C@H](C(=O)N(C)C)C3)[C@H](C)[C@H]12 [Meropenem]
- Avg ΣFIC (range) (K. pneumoniae; K. pneumoniae 70508): 1.19 (1.03-1.5)
- Avg ΣFIC (range) (K. pneumoniae; K. pneumoniae 77081): 1.21 (1.03-1.5)
- Avg ΣFIC (range) (E. cloacae; E. cloacae 80194): 1.32 (1.03-2.12)
- Avg ΣFIC (range) (E. cloacae; E. cloacae 83128): 1.05 (0.75-1.25)
- Avg ΣFIC (range) (P. mirabilis [1]; P. mirabilis 80267): >1*
- Avg ΣFIC (range) (P. mirabilis [1]; P. mirabilis 81569): >1*
- Avg ΣFIC (range) (K. oxytoca; K. oxytoca 75316): 1.1 (1.0-1.25)
- Avg ΣFIC (range) (K. oxytoca; K. oxytoca 76874): 0.80 (0.53-1.12)
